Assay results reported in patent US20210130417A1, “SYSTEMS AND METHODS FOR DESIGNING SYNTHETIC ANTIMICROBIAL PEPTIDES” (University of Notre Dame du Lac, priority 2017, published 2021).
Residues, ends and D or L forms follow the SMILES beside them.

Tests used:
HaCaT cells = test: Ethidium homodimer cytotoxicity assay; format: cell-based, human
Procedure: Medium was aspirated, and cells were washed with PBS. […] Cells were incubated with peptide for 16 h. Medium was aspirated, and cells were washed with PBS. […] The fluorescence was read again. […] Washed cells were resuspended in 25 mL of PBS. […] Samples were read at 450 nm.

[1] = system: sheep red blood cells (RBCs); conditions: at the concentrations tested
Procedure: For hemolysis assays, 100 μL of sheep red blood cells (RBCs) were washed three times in cold PBS (Thermo Fischer). Washed cells were resuspended in 25 mL of PBS. Triton, PBS, or peptide in 10% DMSO/PBS were added to 180 μL of resuspended RBCs and incubated at 37° C. for 1 h. Samples were read at 450 nm. Data was expressed as percent hemolysis by relativizing to the Triton and PBS controls.

CC[C@H](C)[C@H](NC(=O)[C@H](CC(C)C)NC(=O)[C@H](CO)NC(=O)[C@@H](N)CC(C)C)C(=O)N[C@@H](C)C(=O)N[C@@H](C)C(=O)N[C@@H](C)C(=O)NCC(=O)N[C@@H](CCCCN)C(=O)N[C@@H](CCC(=O)O)C(=O)N[C@H](C(=O)N[C@H](C(=O)N[C@@H](CCCNC(=N)N)C(=O)N[C@@H](CCC(N)=O)C(=O)N[C@@H](Cc1ccc(O)cc1)C(=O)N[C@@H](CC(C)C)C(=O)N[C@@H](CCCCN)C(=O)N[C@@H](CC(N)=O)C(=O)N[C@@H](CCC(=O)O)C(=O)N[C@H](C(=O)N[C@@H](CCCCN)C(=O)N[C@@H](CCCCN)C(=O)N[C@@H](CCCCN)C(=O)NCC(=O)N[C@@H](CCCNC(=N)N)C(=O)N[C@@H](CCCCN)C(=O)N[C@@H](C)C(=O)N[C@H](C(=O)N[C@H](C(=O)N[C@@H](C)C(=O)N[C@@H](Cc1c[nH]c2ccccc12)C(=O)O)[C@@H](C)CC)C(C)C)[C@@H](C)CC)[C@@H](C)CC)[C@@H](C)O [syn-safencin] (H-LSLIAAAGKETIRQYLKNEIKKKGRKAVIAW-OH)
cytotoxicity, dose dependence (HaCaT cells; HaCaT cells treated for 16 h, up to 32 μM): slight dose-dependent increase in cytotoxicity | cytotoxicity at the MIC for X. axonopodis (HaCaT cells; HaCaT cells, 16 h, 8 μM peptide): no significant increase in cytotoxicity | percent of cytotoxicity (HaCaT cells; HaCaT cells, 16 h, 32 μM peptide (highest dose), vehicle control 17%): ~25% | hemolytic activity [1]: mild hemolytic activity
